{"source": "patent US4626283A", "about": "“Corrosion and marine growth inhibiting compositions” (Engelhard Corporation, priority 1985, dated 1986)", "key": {"[1]": {"assay": "Salt spray test, alkyd formulations (Example VI, FIG. 3)", "settings": "alkyd formulation, ASTM B117-73, in words", "procedure": "One coat of paint was applied using a Henry K. Gardner Laboratory draw-down, with either a 6 mil or 8 mil draw-down blade. The draw-down speed was 1 inch per second. Such coat of paint was allowed to cure for two weeks under ambient conditions, in the case of both alkyd and latex paints. The dried coating thickness was measured with Elcometer Coating thickness gauge, Model #150/-FNIE. Acceptable thicknesses of the cured film were 2.5-3.5 mils.\nStormer viscosity (ASTM D562-55) for all alkyd paints was greater than 90, and for all latex paints was greater than 80."}, "[2]": {"settings": "water"}, "[3]": {"assay": "Electrochemical testing (Tafel Plot) of corrosion current and corrosion potential"}, "Primary skin irritation": {"assay": "Primary skin irritation", "format": "in vivo", "settings": "0.5 g in saline paste; for Skin irritation rating: in words"}, "Draize eye irritation": {"assay": "Draize eye irritation", "format": "in vivo", "settings": "100 mg; for Eye irritation rating: in words"}, "[4]": {"assay": "Salt spray test, alkyd formulations (Example V, FIG. 1)"}, "[5]": {"format": "physicochemical", "settings": "simulated rain solution saturated with the pigment; electrolyte pH about 4.2"}, "Acute oral toxicity": {"assay": "Acute oral toxicity", "format": "in vivo", "settings": "5 g/kg in corn oil"}, "[6]": {"settings": "overall conclusion in words"}, "[7]": {"settings": "Tafel Plot, simulated acid rain saturated with pigment, SAE-1020 steel, 5.16 square centimeters"}, "[8]": {"settings": "against saturated calomel electrode, simulated acid rain saturated with pigment"}}, "note": "Several values for one entry are separate records, joined by “and”; a condition that tells them apart may be missing. Equal entries are not always repeated. Where two headings read alike, the source gives them in different places.", "data": [{"compound": "NCCN.O=C([O-])CCCCCCCCCCC(=O)[O-].[Zn+2]", "note": "[Compound 11, Zinc Dodecanedioate Ethylenediamine]", "values": [{"measurement": "Salt spray durability, comparison", "setting": "[1]", "value": "superior to \"Zinc Yellow\" (zinc chromate) in salt spray durability"}, {"measurement": "Solubility", "setting": "[2]", "value": ".015"}, {"measurement": "Solubility description", "setting": "[2]", "value": "PINS (key: PINS: practically insoluble (<.1 g/100cc H2 O); SS: slightly soluble (.1 to 1 g/100cc H2 O); MS: moderately soluble)"}, {"measurement": "Corrosion current (Icorr)", "setting": "[3]; [7]", "value": "130 microamps and > 100 microamps"}]}, {"compound": "NCCN.O=C([O-])c1ccccc1C(=O)[O-].[Zn+2]", "note": "[Compound 17, Zinc Phthalate Ethylenediamine]", "values": [{"measurement": "Skin irritation score", "setting": "Primary skin irritation", "value": 0.00}, {"measurement": "Skin irritation rating", "setting": "Primary skin irritation", "value": "non-irritating"}, {"measurement": "Solubility", "setting": "[2]", "value": ".02"}, {"measurement": "Solubility description", "setting": "[2]", "value": "PINS (key: PINS: practically insoluble (<.1 g/100cc H2 O); SS: slightly soluble (.1 to 1 g/100cc H2 O); MS: moderately soluble)"}, {"measurement": "Corrosion current (Icorr)", "setting": "[3]", "value": 83, "unit": "microamps"}]}, {"compound": "NCCN.O=C([O-])CCCCCCCCC(=O)[O-].[Zn+2]", "note": "[Compound 6, Zinc Sebacate Ethylenediamine]", "values": [{"measurement": "Skin irritation score", "setting": "Primary skin irritation", "value": 0.13}, {"measurement": "Skin irritation rating", "setting": "Primary skin irritation", "value": "minimally irritating"}, {"measurement": "Eye irritation score", "setting": "Draize eye irritation", "value": 37.2}, {"measurement": "Eye irritation rating", "setting": "Draize eye irritation", "value": "severely irritating"}, {"measurement": "Corrosion current (Icorr)", "setting": "[3]", "value": "170 microamps and > 100 microamps"}, {"measurement": "Corrosion potential (Ecorr)", "setting": "[3]", "value": -462, "unit": "millovolts"}]}, {"compound": "NCCN.O=C([O-])c1cccc(C(=O)[O-])c1.[Zn+2]", "note": "[Compound 18, Zinc Isophthalate Ethylenediamine]", "values": [{"measurement": "Salt spray durability, comparison", "setting": "[1]", "value": "superior to \"Zinc Yellow\" (zinc chromate) in salt spray durability"}, {"measurement": "Solubility", "setting": "[2]", "value": 1.13}]}, {"compound": "Zinc Dibasate Dimethylamine [Compound 21]", "values": [{"measurement": "Corrosion current (Icorr)", "setting": "[3]", "value": 82, "unit": "microamps"}, {"measurement": "Corrosion potential (Ecorr)", "setting": "[3]", "value": -610, "unit": "millovolts"}]}, {"compound": "Zinc Sulfonyldiphenolate Ethylenediamine [Compound 15]", "values": [{"measurement": "Skin irritation score", "setting": "Primary skin irritation", "value": 0.08}, {"measurement": "Skin irritation rating", "setting": "Primary skin irritation", "value": "non-irritating"}, {"measurement": "Eye irritation score", "setting": "Draize eye irritation", "value": 31.0}, {"measurement": "Eye irritation rating", "setting": "Draize eye irritation", "value": "severely irritating"}, {"measurement": "Corrosion current (Icorr)", "setting": "[3]", "value": "170 microamps and > 100 microamps"}, {"measurement": "Corrosion potential (Ecorr)", "setting": "[3]", "value": -592, "unit": "millovolts"}]}, {"compound": "NCCN.O=C([O-])CCCCCCCC(=O)[O-].[Zn+2]", "note": "[Compound 5, Zinc Azelate Ethylenediamine]", "values": [{"measurement": "Effect of kaolin on salt spray performance", "setting": "[4]; alkyd formulation, combination with kaolin, in words", "value": "anomolously reduced the performance"}, {"measurement": "Solubility", "setting": "[2]", "value": ".21"}, {"measurement": "Solubility description", "setting": "[2]", "value": "SS (key: PINS: practically insoluble (<.1 g/100cc H2 O); SS: slightly soluble (.1 to 1 g/100cc H2 O); MS: moderately soluble)"}, {"measurement": "Corrosion current (Icorr)", "setting": "[3]; [7]", "value": 82, "unit": "microamps"}, {"measurement": "Corrosion potential (Ecorr)", "setting": "[3]; [8]", "value": -667, "unit": "millovolts"}]}, {"compound": "NCCN.O=C([O-])CCCC(=O)[O-].[Zn+2]", "note": "[Compound 2, Zinc Glutarate Ethylenediamine]", "values": [{"measurement": "Solubility", "setting": "[2]", "value": ".16"}, {"measurement": "Solubility description", "setting": "[2]", "value": "SS (key: PINS: practically insoluble (<.1 g/100cc H2 O); SS: slightly soluble (.1 to 1 g/100cc H2 O); MS: moderately soluble)"}]}, {"compound": "Zinc Dibasate Piperidine [Compound 24]", "values": [{"measurement": "Corrosion current (Icorr)", "setting": "[3]", "value": 40, "unit": "microamps"}, {"measurement": "Corrosion potential (Ecorr)", "setting": "[3]", "value": -610, "unit": "millovolts"}]}, {"compound": "Zinc Dibasate-1,2-Diaminopropane [8^(3)]", "values": [{"measurement": "pH", "setting": "[5]", "value": 7.55}, {"measurement": "Corrosion current (Icorr)", "setting": "[3]; [7]", "value": 90, "unit": "microamps"}, {"measurement": "Corrosion potential (Ecorr)", "setting": "[3]; [8]", "value": -570, "unit": "millovolts"}]}, {"compound": "Zinc Dibasate Pyridine [Compound 23]", "values": [{"measurement": "pH", "setting": "[5]", "value": 7.0}, {"measurement": "Corrosion current (Icorr)", "setting": "[3]; [7]", "value": 60, "unit": "microamps"}, {"measurement": "Corrosion potential (Ecorr)", "setting": "[3]; [8]", "value": -550, "unit": "millovolts"}]}, {"compound": "Zinc Dibasate Diethylamine [Compound 9]", "values": [{"measurement": "Eye irritation score", "setting": "Draize eye irritation", "value": 5.5}, {"measurement": "Eye irritation rating", "setting": "Draize eye irritation", "value": "mildly irritating"}, {"measurement": "Corrosion current (Icorr)", "setting": "[3]", "value": 30, "unit": "microamps"}, {"measurement": "Corrosion current (Icorr), second test", "setting": "[3]", "value": "177 microamps and > 100 microamps"}, {"measurement": "Corrosion potential (Ecorr)", "setting": "[3]", "value": -570, "unit": "millovolts"}, {"measurement": "Oral acute toxicity, mortality", "setting": "Acute oral toxicity", "value": 0, "unit": "%"}]}, {"compound": "Zinc Thiodiphenolate Propylenediamine [Compound 20]", "values": [{"measurement": "Corrosion current (Icorr)", "setting": "[3]", "value": 46, "unit": "microamps"}, {"measurement": "Corrosion potential (Ecorr)", "setting": "[3]", "value": -560, "unit": "millovolts"}]}, {"compound": "NCCN.O=C([O-])CCCCC(=O)[O-].[Zn+2]", "note": "[Compound 3, Zinc Adipate Ethylenediamine]", "values": [{"measurement": "Skin irritation score", "setting": "Primary skin irritation", "value": 0.42}, {"measurement": "Skin irritation rating", "setting": "Primary skin irritation", "value": "minimally irritating"}, {"measurement": "Eye irritation score", "setting": "Draize eye irritation", "value": 19.0}, {"measurement": "Eye irritation rating", "setting": "Draize eye irritation", "value": "moderately-irritating"}, {"measurement": "Salt spray durability, comparison", "setting": "[1]", "value": "superior to \"Zinc Yellow\" (zinc chromate) in salt spray durability"}, {"measurement": "Corrosion current (Icorr)", "setting": "[3]; [7]", "value": 78, "unit": "microamps"}, {"measurement": "mortality", "setting": "Acute oral toxicity; in vivo, 5000 mg/kg", "value": 0, "unit": "%"}]}, {"compound": "NCCN.O=C([O-])c1ccc(C(=O)[O-])cc1.[Zn+2]", "note": "[Compound 19, Zinc Terephthalate Ethylenediamine]", "values": [{"measurement": "Solubility", "setting": "[2]", "value": ".66"}, {"measurement": "Solubility description", "setting": "[2]", "value": "SS (key: PINS: practically insoluble (<.1 g/100cc H2 O); SS: slightly soluble (.1 to 1 g/100cc H2 O); MS: moderately soluble)"}]}, {"compound": "Zinc Thiodiphenolate Ethylenediamine [Compound 14]", "values": [{"measurement": "Effect of kaolin on salt spray performance", "setting": "[4]", "value": "enhanced the performance"}, {"measurement": "Eye irritation score", "setting": "Draize eye irritation", "value": 53.7}, {"measurement": "Eye irritation rating", "setting": "Draize eye irritation", "value": "extremely irritating"}, {"measurement": "Toxicity characteristics", "setting": "[6]", "value": "unacceptable toxicity characteristics"}, {"measurement": "Corrosion current (Icorr)", "setting": "[3]", "value": 52.5, "unit": "microamps"}, {"measurement": "Corrosion potential (Ecorr)", "setting": "[3]", "value": -570, "unit": "millovolts"}]}, {"compound": "Zinc Dibasate Propylenediamine [Compound 8]", "values": [{"measurement": "Solubility", "setting": "[2]", "value": ".16"}, {"measurement": "Solubility description", "setting": "[2]", "value": "SS (key: PINS: practically insoluble (<.1 g/100cc H2 O); SS: slightly soluble (.1 to 1 g/100cc H2 O); MS: moderately soluble)"}]}, {"compound": "CC(N)CN.O=C([O-])CCCCC(=O)[O-].[Zn+2]", "note": "[Compound 4, Zinc Adipate Propylenediamine]", "values": [{"measurement": "Salt spray durability, comparison", "setting": "[1]", "value": "superior to \"Zinc Yellow\" (zinc chromate) in salt spray durability"}]}, {"compound": "CCNCC.O=C([O-])CCCCCCCCCCC(=O)[O-].[Zn+2]", "note": "[Compound 12, Zinc Dodecanedioate Diethylamine]", "values": [{"measurement": "Corrosion current (Icorr)", "setting": "[3]", "value": "197 microamps and > 100 microamps"}]}, {"compound": "O=C([O-])CCCCCCCCCCC(=O)[O-].OCCN(CCO)CCO.[Zn+2]", "note": "[Compound 10, Zinc Dibasate Triethanolamine]", "values": [{"measurement": "Salt spray durability, comparison", "setting": "[1]", "value": "superior to \"Zinc Yellow\" (zinc chromate) in salt spray durability"}, {"measurement": "Corrosion current (Icorr)", "setting": "[3]", "value": 93, "unit": "microamps"}, {"measurement": "Corrosion potential (Ecorr)", "setting": "[3]", "value": -580, "unit": "millovolts"}]}, {"compound": "Zinc Quinizarinate Ethylenediamine [Compound 22]", "values": [{"measurement": "Corrosion current (Icorr)", "setting": "[3]; [7]", "value": 84, "unit": "microamps"}, {"measurement": "Corrosion potential (Ecorr)", "setting": "[3]; [8]", "value": -570, "unit": "millovolts"}]}]}
